Experimental data taken from US20250084033A1, “METHOD OF PROMOTING PERACETIC ACID DECOMPOSITION USING METAL COMPOUND, AND METHOD OF CULTURING MICROORGANISMS USING SAME” (N-CELL CO.,LTD, priority 2022, published 2025).
Where two headings read alike, the source gives them in different places.

Legend:
Euglena gracilis [1] = details: for effect on growth of Euglena gracilis (in words): acetic acid or sodium acetate 0.05-0.25% (w/v) in nutrient medium; for absorbance of the Euglena gracilis culture solution: 680 nm
Procedure: A nutrient medium for the cultivation of Euglena gracilis (prepared with triple-distilled water, KH2PO4, citrate, MgSO4·3H2O, vitamin B1, vitamin B6, vitamin B12, vitamin H, yeast extract, peptone, and dextrose) was autoclaved at 121° C. for 15 minutes. Sodium acetate (CH3COONa) was then added to the prepared nutrient medium at a concentration of 0.05% (w/v), and an inoculum of Euglena gracilis (KCTC AG40099) was introduced. The culture was incubated at 130 rpm, 28° C., and under light conditions of 100 μE photons/m^2/s. Growth was measured by monitoring absorbance at a wavelength of 680 nm.
The experiment was conducted in the same manner as in Example 11, except that acetic acid was added instead of sodium acetate.
The experiment was conducted in the same manner as in Comparative Example 2,except that acetic acid was added to the prepared nutrient medium at concentrations of 0.1% (w/v) (Comparative Example 3), 0.15% (w/v) (Comparative Example 4), 0.2% (w/v) (Comparative Example 5), and 0.25% (w/v) (Comparative Example 6), instead of sodium acetate.

Euglena gracilis [2] = test: Growth of Euglena gracilis in peracetic acid-treated medium with sodium bicarbonate (absorbance 680 nm); assay type: cell-based; details: PAA 0.05% (w/v) with or without sodium bicarbonate 0.05-0.3% (w/v)
Procedure: The growth of Euglena was measured by monitoring absorbance at a wavelength of 680 nm.

[3] = Table 4, sodium acetate added, cultivation time 0 Day
[4] = Table 4, sodium acetate added, cultivation time 1 Day
[5] = Table 4, sodium acetate added, cultivation time 2 Days
[6] = Table 4, sodium acetate added, cultivation time 4 Days
[7] = Table 4, sodium acetate added, cultivation time 5 Days
[8] = Table 3, acetic acid added, cultivation time 0 Day
[9] = Table 3, acetic acid added, cultivation time 1 Day

CC(=O)[O-].[Na+] [sodium acetate]
effect on growth of Euglena gracilis (in words) (Euglena gracilis [1]): does not inhibit the growth of Euglena

CC(=O)[O-].[Na+] [Example 14, sodium acetate]
absorbance of the Euglena gracilis culture solution (Euglena gracilis [1]; [3]): 1.3602 AU
absorbance of the Euglena gracilis culture solution (Euglena gracilis [1]; [4]): 2.1565 AU
absorbance of the Euglena gracilis culture solution (Euglena gracilis [1]; [5]): 3.709 AU
absorbance of the Euglena gracilis culture solution (Euglena gracilis [1]; [6]): 7.624 AU
absorbance of the Euglena gracilis culture solution (Euglena gracilis [1]; [7]): 8.665 AU

CC(=O)O [Comparative Example 5, acetic acid]
absorbance of the Euglena gracilis culture solution (Euglena gracilis [1]; [8]): 1.686 AU
absorbance of the Euglena gracilis culture solution (Euglena gracilis [1]; [9]): 1.5025 AU

CC(=O)[O-].[Na+] [Example 15, sodium acetate]
absorbance of the Euglena gracilis culture solution (Euglena gracilis [1]; [3]): 1.4034 AU
absorbance of the Euglena gracilis culture solution (Euglena gracilis [1]; [4]): 2.1945 AU
absorbance of the Euglena gracilis culture solution (Euglena gracilis [1]; [5]): 3.803 AU
absorbance of the Euglena gracilis culture solution (Euglena gracilis [1]; [6]): 7.369 AU
absorbance of the Euglena gracilis culture solution (Euglena gracilis [1]; [7]): 8.405 AU

CC(=O)O [Comparative Example 6, acetic acid]
absorbance of the Euglena gracilis culture solution (Euglena gracilis [1]; [8]): 1.7554 AU
absorbance of the Euglena gracilis culture solution (Euglena gracilis [1]; [9]): 1.5195 AU

CC(=O)O [Comparative Example 2, acetic acid]
absorbance of the Euglena gracilis culture solution (Euglena gracilis [1]; [8]): 1.3738 AU
absorbance of the Euglena gracilis culture solution (Euglena gracilis [1]; [9]): 2.1945 AU
absorbance of the Euglena gracilis culture solution (Euglena gracilis [1]; Table 3, acetic acid added, cultivation time 2 Days): 3.929 AU
absorbance of the Euglena gracilis culture solution (Euglena gracilis [1]; Table 3, acetic acid added, cultivation time 4 Days): 10.34 AU
absorbance of the Euglena gracilis culture solution (Euglena gracilis [1]; Table 3, acetic acid added, cultivation time 5 Days): 11.063 AU
effect on growth of Euglena gracilis (in words) (Euglena gracilis [1]): no inhibitory effect

CC(=O)O [Comparative Example 4, acetic acid]
absorbance of the Euglena gracilis culture solution (Euglena gracilis [1]; [8]): 1.831 AU
absorbance of the Euglena gracilis culture solution (Euglena gracilis [1]; [9]): 1.598 AU

CC(=O)[O-].[Na+] [Example 12, sodium acetate]
absorbance of the Euglena gracilis culture solution (Euglena gracilis [1]; [3]): 1.316 AU
absorbance of the Euglena gracilis culture solution (Euglena gracilis [1]; [4]): 2.1825 AU
absorbance of the Euglena gracilis culture solution (Euglena gracilis [1]; [5]): 3.969 AU
absorbance of the Euglena gracilis culture solution (Euglena gracilis [1]; [6]): 7.739 AU
absorbance of the Euglena gracilis culture solution (Euglena gracilis [1]; [7]): 8.442 AU

CC(=O)[O-].[Na+] [Example 11, sodium acetate]
absorbance of the Euglena gracilis culture solution (Euglena gracilis [1]; [3]): 1.33 AU
absorbance of the Euglena gracilis culture solution (Euglena gracilis [1]; [4]): 2.2345 AU
absorbance of the Euglena gracilis culture solution (Euglena gracilis [1]; [5]): 3.898 AU
absorbance of the Euglena gracilis culture solution (Euglena gracilis [1]; [6]): 8.511 AU
absorbance of the Euglena gracilis culture solution (Euglena gracilis [1]; [7]): 9.852 AU

CC(=O)[O-].[Na+] [Example 13, sodium acetate]
absorbance of the Euglena gracilis culture solution (Euglena gracilis [1]; [3]): 1.3882 AU
absorbance of the Euglena gracilis culture solution (Euglena gracilis [1]; [4]): 2.1605 AU
absorbance of the Euglena gracilis culture solution (Euglena gracilis [1]; [5]): 3.861 AU
absorbance of the Euglena gracilis culture solution (Euglena gracilis [1]; [6]): 7.52 AU
absorbance of the Euglena gracilis culture solution (Euglena gracilis [1]; [7]): 8.561 AU

O=C([O-])O.[Na+] [sodium bicarbonate]
growth of Euglena gracilis (in words) (Euglena gracilis [2]): does not specifically affect the growth of Euglena gracilis

CC(=O)O [Comparative Example 3, acetic acid]
absorbance of the Euglena gracilis culture solution (Euglena gracilis [1]; [8]): 1.8372 AU
absorbance of the Euglena gracilis culture solution (Euglena gracilis [1]; [9]): 1.712 AU
